# Laboratory results published in ChEMBL document CHEMBL1201862, “PubChem BioAssay data set” (2004).
# Activity calls are given as the source filed them.
# Columns and labels:
# [1] = biological target: T1, Mannose-6-phosphate isomerase (Homo sapiens, UniProt P34949); assay: human PMI inhibitors, high substrate, primary screen, biochemical, fluorescence intensity, high mannose 6-phosphate (AID 1220)
# T1 sequence (P34949 whole entry): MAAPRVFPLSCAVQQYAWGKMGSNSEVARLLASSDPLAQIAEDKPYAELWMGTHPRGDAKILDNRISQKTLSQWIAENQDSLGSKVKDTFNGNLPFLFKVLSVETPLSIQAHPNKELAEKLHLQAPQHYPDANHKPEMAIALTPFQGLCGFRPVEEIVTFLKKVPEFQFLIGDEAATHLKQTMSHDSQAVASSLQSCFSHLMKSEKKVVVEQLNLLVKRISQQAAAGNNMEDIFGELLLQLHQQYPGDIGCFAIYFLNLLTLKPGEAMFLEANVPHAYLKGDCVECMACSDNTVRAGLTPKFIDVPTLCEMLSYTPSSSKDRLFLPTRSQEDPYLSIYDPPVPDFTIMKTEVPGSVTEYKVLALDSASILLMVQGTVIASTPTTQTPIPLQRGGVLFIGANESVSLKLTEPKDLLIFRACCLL
# [2] = biological target: T2, Zinc finger protein mex-5 (Caenorhabditis elegans, UniProt Q9XUB2); assay: MEX-5/TCR-2 RNA interaction inhibitors, dose response, biochemical, C. elegans, fluorescence polarization (AID 1960)
# T2 sequence (Q9XUB2 whole entry): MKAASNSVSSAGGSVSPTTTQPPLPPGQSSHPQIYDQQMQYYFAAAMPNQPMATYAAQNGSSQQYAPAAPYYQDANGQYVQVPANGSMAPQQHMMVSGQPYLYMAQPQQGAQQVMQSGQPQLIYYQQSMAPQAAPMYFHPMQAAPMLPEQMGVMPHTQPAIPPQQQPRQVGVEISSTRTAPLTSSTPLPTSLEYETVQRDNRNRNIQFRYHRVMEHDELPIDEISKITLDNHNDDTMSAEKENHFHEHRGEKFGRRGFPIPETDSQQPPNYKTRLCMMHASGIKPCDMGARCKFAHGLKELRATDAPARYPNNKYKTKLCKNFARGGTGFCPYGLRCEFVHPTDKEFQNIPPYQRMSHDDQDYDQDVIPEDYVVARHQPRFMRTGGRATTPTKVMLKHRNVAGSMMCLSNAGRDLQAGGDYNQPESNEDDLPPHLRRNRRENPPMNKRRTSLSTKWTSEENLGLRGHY
# [3] = biological target: T3, RNA-binding protein pos-1 (Caenorhabditis elegans, UniProt G5EF15); assay: inhibitors of POS-1/mex-3 RNA binding, dose response, biochemical, fluorescence polarization (AID 1964);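 further: purified POS-1 fused to maltose binding protein made in E. coli; potency of compounds blocking POS-1 binding to fluorescent RNA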
# T3 sequence (G5EF15 whole entry): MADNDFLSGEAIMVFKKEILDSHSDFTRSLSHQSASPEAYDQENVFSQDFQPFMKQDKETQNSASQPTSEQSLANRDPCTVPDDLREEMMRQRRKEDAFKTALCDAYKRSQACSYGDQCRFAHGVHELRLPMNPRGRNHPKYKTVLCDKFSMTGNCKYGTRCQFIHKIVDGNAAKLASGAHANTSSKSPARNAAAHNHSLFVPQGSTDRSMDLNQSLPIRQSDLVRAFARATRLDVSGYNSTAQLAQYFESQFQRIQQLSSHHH
# [4] = biological target: Glucose-6-phosphate 1-dehydrogenase (Homo sapiens, UniProt P11413); assay: human G6PD enzyme inhibitors, dose response, selectivity assay for P. falciparum G6PD inhibitor project, biochemical, fluorescence (AID 504792); type: functional
# Glucose-6-phosphate 1-dehydrogenase, sequence (P11413 whole entry, the tested form may be a part): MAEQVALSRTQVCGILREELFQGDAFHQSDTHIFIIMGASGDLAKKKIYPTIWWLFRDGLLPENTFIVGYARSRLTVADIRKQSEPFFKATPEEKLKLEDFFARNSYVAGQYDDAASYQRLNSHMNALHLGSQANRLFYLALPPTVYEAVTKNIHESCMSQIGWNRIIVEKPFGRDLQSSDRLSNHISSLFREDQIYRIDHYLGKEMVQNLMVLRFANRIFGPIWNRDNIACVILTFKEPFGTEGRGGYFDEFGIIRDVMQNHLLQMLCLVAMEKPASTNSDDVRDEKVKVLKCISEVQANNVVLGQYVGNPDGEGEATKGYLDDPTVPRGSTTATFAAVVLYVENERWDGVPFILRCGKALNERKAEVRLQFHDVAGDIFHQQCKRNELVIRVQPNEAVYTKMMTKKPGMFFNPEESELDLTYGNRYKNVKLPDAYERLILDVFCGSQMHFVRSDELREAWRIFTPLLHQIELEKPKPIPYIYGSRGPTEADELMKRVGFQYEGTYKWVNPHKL
# [5] = biological target: T4, Carboxy-terminal domain RNA polymerase II polypeptide A small phosphatase 1 (Homo sapiens, UniProt Q9GZU7); assay: inhibitors of CTDSP1, concentration-response testing, biochemical assay, absorbance-based, actives from ultra-high-throughput screening (AID 540297); type: functional
# T4 sequence (Q9GZU7 whole entry): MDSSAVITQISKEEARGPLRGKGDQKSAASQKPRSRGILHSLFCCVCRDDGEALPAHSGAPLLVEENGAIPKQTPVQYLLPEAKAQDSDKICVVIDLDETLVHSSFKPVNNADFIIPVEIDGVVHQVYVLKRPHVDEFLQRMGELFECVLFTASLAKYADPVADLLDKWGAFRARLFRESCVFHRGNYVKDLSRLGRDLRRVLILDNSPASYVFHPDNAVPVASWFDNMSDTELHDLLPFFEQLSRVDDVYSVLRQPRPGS
# [6] = cells; type: functional, cell-based
# [7] = cells; type: functional, cell-based; remark: listed apart in the source
# [8] = tested on: Streptococcus sp. 'group A'; assay: growth inhibition of control SK(-) GAS strain, dose response, counter-screen for streptokinase expression inhibitor project, luminescence, kanamycin, BacTiterGlo, confirmation (AID 1900); type: functional, organism-based
# [9] = biological target: T5, Protein RecA (Mycobacterium tuberculosis, UniProt P9WHJ3); assay: Fluorescence Cell-Free Homogeneous Dose Retest to Identify Inhibitors of RecA-Intein Splicing Activity. [Related pubchem assays (depositor defined):AID2097, AID2223, AID489010, AID492950]; type: functional
# T5 sequence (P9WHJ3 whole entry): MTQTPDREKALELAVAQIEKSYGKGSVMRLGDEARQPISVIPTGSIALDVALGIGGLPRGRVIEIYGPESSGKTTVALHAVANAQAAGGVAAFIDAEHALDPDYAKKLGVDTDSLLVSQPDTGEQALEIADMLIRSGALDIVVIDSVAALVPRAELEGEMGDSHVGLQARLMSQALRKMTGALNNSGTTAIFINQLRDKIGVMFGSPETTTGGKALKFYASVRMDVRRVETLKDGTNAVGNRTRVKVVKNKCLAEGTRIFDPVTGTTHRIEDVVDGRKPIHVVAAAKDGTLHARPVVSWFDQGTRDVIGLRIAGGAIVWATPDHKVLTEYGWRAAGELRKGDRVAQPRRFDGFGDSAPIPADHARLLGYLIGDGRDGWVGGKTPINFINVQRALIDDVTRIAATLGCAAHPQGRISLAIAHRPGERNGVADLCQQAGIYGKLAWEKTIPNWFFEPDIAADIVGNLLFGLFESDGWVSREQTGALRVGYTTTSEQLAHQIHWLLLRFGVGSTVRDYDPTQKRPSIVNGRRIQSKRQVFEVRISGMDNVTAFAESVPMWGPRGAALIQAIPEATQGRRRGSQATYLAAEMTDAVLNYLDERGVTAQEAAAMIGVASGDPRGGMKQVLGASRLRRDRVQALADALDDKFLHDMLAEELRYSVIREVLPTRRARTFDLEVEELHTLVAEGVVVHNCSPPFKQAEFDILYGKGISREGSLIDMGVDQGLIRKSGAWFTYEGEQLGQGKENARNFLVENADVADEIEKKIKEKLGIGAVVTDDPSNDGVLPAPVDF
# [10] = tested on: Streptococcus; assay: Group A Streptococcus viability loss, dose response, counter-screen for streptokinase expression inhibitor project, luminescence, BacTiterGlo (AID 1915); type: functional, organism-based;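 further: potency for reduction of bacterial viability or growth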
# [11] = biological target: T6, Streptokinase A (Streptococcus pyogenes serotype M1, UniProt P10520); assay: S. pyogenes streptokinase expression inhibitors, potency, dose response, plasminogen activation absorbance, OD405 (AID 1914); type: functional, Streptococcus pyogenes M1 GAS;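 further: secreted streptokinase activity via plasminogen activation per viability signal from cell pellet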
# T6 sequence (P10520 whole entry): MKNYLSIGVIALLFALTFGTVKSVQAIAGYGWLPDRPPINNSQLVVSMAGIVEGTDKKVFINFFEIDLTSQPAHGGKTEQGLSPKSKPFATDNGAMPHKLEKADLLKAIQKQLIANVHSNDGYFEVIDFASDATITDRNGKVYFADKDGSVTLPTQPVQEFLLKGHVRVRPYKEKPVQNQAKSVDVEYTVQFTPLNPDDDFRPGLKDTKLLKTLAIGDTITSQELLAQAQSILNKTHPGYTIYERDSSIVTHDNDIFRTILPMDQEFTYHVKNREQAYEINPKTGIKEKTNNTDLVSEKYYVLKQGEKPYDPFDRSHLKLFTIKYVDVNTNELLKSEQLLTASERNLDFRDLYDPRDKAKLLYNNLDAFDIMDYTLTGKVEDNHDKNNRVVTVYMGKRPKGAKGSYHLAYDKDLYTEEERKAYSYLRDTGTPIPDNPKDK
# [12] = biological target: T7, Replicative DNA helicase DnaB (Mycobacterium tuberculosis, UniProt P9WMR3); assay: DnaB intein splicing inhibitors, dose response, biochemical, cell-free fluorescence (AID 449749); type: functional
# T7 sequence (P9WMR3 whole entry): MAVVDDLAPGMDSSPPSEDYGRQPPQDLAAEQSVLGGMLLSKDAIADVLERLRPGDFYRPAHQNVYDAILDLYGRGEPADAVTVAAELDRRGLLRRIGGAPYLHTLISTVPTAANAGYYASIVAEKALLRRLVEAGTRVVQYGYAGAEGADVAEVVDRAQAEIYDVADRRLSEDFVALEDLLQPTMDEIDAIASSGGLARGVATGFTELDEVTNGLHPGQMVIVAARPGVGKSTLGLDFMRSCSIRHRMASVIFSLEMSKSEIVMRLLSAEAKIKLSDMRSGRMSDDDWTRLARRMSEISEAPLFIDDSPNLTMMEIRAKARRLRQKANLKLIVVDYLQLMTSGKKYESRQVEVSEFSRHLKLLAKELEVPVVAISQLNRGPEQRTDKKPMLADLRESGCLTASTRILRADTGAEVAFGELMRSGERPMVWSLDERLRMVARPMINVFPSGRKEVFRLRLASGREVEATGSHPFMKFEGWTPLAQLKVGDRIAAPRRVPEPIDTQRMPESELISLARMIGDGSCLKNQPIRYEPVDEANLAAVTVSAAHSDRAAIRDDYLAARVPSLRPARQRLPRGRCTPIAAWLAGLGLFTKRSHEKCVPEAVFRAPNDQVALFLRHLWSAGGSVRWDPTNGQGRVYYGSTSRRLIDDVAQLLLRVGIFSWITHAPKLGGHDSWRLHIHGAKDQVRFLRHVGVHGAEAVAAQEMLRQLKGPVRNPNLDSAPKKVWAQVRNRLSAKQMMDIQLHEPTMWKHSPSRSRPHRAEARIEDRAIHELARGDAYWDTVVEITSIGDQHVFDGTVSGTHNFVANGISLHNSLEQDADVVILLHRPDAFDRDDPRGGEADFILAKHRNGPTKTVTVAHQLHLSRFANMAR
# [13] = HEp-2 cell cytotoxicity, dose response, cytotoxicity control for RSV inhibitor project, HTS (AID 2410); type: functional; conditions: human respiratory syncytial virus
# [14] = P. falciparum Dd2 growth inhibitors, dose response, SYBR Green, cherry-picked samples (AID 1159567); type: functional, cell-based
smiles,measurement,setting,value
COc1ccc(-n2c(=S)[nH]c3sc4c(c3c2=O)CCc2ccccc2-4)cc1,IC50,[1],25.7 µM (active)
Cc1cc(C(=O)O)ccc1-n1c(C)cc(C=C2C(=O)c3ccccc3C2=O)c1C,EC50,[2],> 300 µM (not active)
same,EC50,[3],> 300 µM (not active)
same,IC50,[4],> 80 µM (inactive)
COc1cc(NC(=S)Nc2cccnc2)cc(OC)c1,IC50,[1],> 50 µM (not active)
O=C(Nc1cccc(S(=O)(=O)NC2=NCCCCC2)c1)C1COc2ccccc2O1 (stereo not given),IC50,[5],5.75 µM (active)
NS(=O)(=O)c1ccc(NC(=O)c2ccc(CSc3ccccc3)o2)cc1,EC50,[6],> 350 µM (not active)
same,EC50,[7],> 350 µM (not active)
COC(=O)Nc1ccc(=O)n(Cc2c(Cl)cccc2Cl)c1,EC50,[6],> 350 µM (not active)
same,EC50,[7],> 350 µM (not active)
COc1ccc(OC)c(CNC(=O)C2CCCN(S(=O)(=O)N3CCC(C)CC3)C2)c1 (stereo not given),EC50,[6],> 350 µM (not active)
same,EC50,[7],> 350 µM (not active)
CN1c2ccccc2C(C)(C)C12C=Nc1c(ccc3ccccc13)O2 (stereo not given),EC50,[8],3.92 µM (active)
same,EC50,[9],14.4 µM (active)
same,EC50,[10],> 150 µM (not active)
same,EC50,[11],24 µM (active)
same,AC50,[12],32.4 µM (active)
same,IC50,[1],> 50 µM (not active)
C[N+]1(C)CC2([N+](=O)[O-])CC=C(Oc3ccccc3)C([N+](=O)[O-])(C2)C1 (stereo not given),IC50,[5],6.82 µM (active)
CCOC(=O)N1CCC(N2Cc3cccc(C(=O)NCc4ccc5c(c4)OCO5)c3C2=O)CC1,IC50,[5],15 µM (active)
COc1ccc(NC(=O)CSc2nc3c(c(-c4cccs4)c2C#N)CN(C)CC3)cc1OC,IC50,[1],> 50 µM (not active)
Cc1ccc(C)c(NC(=O)CN(C)C(=O)Cc2coc3cc(C)c(C)cc23)c1,EC50,[6],> 350 µM (not active)
same,EC50,[7],> 350 µM (not active)
O=C1N=C(Nc2ccc(Cl)cc2)/C(=C/c2ccco2)S1,IC50,[5],1.86 µM (active)
Cc1ccc(NC(=O)COc2ccc(/C=N\NC(=O)c3cccnc3)cc2)cc1C,IC50,[5],10 µM (active)
CC(C)(C)C(=O)O/N=C1/C(=O)N(c2ccccc2)c2ccccc21,CC50,[13],26.5 µM (active)
same,IC50,[5],7.51 µM (active)
Cc1cc(/C=N/N2CCN(C)CC2)c(C)n1-c1ccc(Cl)cc1,EC50,[6],> 350 µM (not active)
same,EC50,[7],> 350 µM (not active)
CCCC#Cc1ccc2c(c1)[C@@H]1[C@@H](CCN1S(=O)(=O)c1ccccc1C)[C@@H](CO)N2,AC50,[14],7.51 µM (active)
N#Cc1cccc(-c2ccc3c(c2)[C@@H]2[C@@H](CCN2Cc2cncnc2)[C@H](CO)N3)c1,AC50,[14],6.32 µM (active)
COc1cccc(CN2C[C@@H]3N[C@H](C2)[C@H]3c2ccc(-c3ccncc3)cc2)c1,AC50,[14],7.31 µM (active)
CCC(=O)N1[C@H](CO)[C@@H](c2ccccc2-c2cccc(C)c2)[C@@H]1C#N,AC50,[14],> 42 µM (inactive)
C/C=C/c1ccc([C@@H]2[C@H](CO)N(CC3CC3)C23CN(C(=O)c2ccc4c(c2)OCO4)C3)cc1,AC50,[14],4.44 µM (active)
COc1ccccc1C#Cc1ccc([C@@H]2[C@H](C#N)N(C(=O)C3CCCC3)[C@H]2CO)cc1,AC50,[14],5.17 µM (active)
